The source of these data is patent US20250228239A1, “MOLECULES HAVING PESTICIDAL UTILITY, AND INTERMEDIATES, COMPOSITIONS, AND PROCESSES, RELATED THERETO” (priority 2024, published 2025).

Common to all, as to format: in vivo
The test system of assay [1] is Cabbage Looper (Trichoplusia ni, TRIPNI). As to the kind of experiment: Bioassays on Cabbage Looper (CL), 128-well diet tray assay. To be noted: Trichoplusia ni. Summed up: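 Second-instar larvae (1–5 per well) placed on artificial diet surface-treated with 50 μg/cm^2 test molecule applied in 90:10 acetone-water and dried. Held at 25° C., 14:10 light-dark, for five to seven days. Percent mortality scored per well and averaged over eight wells.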

In assay [2] the test system is Beet Armyworm (Spodoptera exigua, LAPHEG). As to the kind of experiment: Bioassays on Beet Armyworm (BAW), 128-well diet tray assay. To be noted: Spodoptera exigua. Summed up:
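Eight diet wells per compound were treated at 50 μg/cm^2 (acetone-water 90:10), dried, then infested with 1–5 second-instar larvae each. After five to seven days at 25 °C under 14:10 photoperiod, mortality was scored and averaged across wells.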

For assay [3], the system named is Yellow Fever Mosquito (Aedes aegypti, AEDSAE). As to conditions: for YFM rating: Table ABC / ABC-DP rating. In short, it runs like this: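 Compounds from DMSO master plates (4000 ppm stock) diluted in 90:10 water/acetone, then dispensed into six replicate plates and infested with ~1-day-old Aedes aegypti larvae in liver-powder water. Held covered at room temperature for 3 days; each well scored for larval mortality and graded on a rating scale.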

Where [4] appears, read: Cabbage Looper, rating class, read-out: CL.
Where [5] appears, read: Beet Armyworm, rating class, read-out: BAW.
Setting [6] is: Yellow Fever Mosquito, rating class.
Where [7] appears, read: Table ABC: Biological Results, species CL, read-out: CL.
The mark [8] stands for this setting: Table ABC: Biological Results, species BAW, read-out: BAW.
Setting [9] is: Table ABC: Biological Results, species YFM.
[10] abbreviates: Cabbage Looper, Table ABC / ABC-DP rating, read-out: CL rating.
The mark [11] stands for this setting: Beet Armyworm, Table ABC / ABC-DP rating, read-out: BAW rating.

Read-outs that look alike come from different tables or passages of the source.

For the compound `CN(C(=O)CC#N)c1c(F)ccc(NC(=O)c2cc(NC(=O)[C@H]3[C@H](c4ccc(F)c(C(F)(F)F)c4)C3(Cl)Cl)ccc2Cl)c1F` [F1752, 2-Chloro-N-(3-(2-cyano-N-methylacetamido)-2,4-difluorophenyl)-5-((1R,3R)-2,2-dichloro-3-(4-fluoro-3-(trifluoromethyl)phenyl)cyclopropane-1-carboxamido)benzamide], the pest or weed control at 50 µg/cm2 in assay [1] (setting [4]) and in assay [2] (setting [5]) was 50 to 100% throughout. Besides, in assay [3] (setting [6]), the YFM entry is listed as “A (80–100)”.
As to `Cc1cc(NCc2ccccc2)ccc1NC(=O)c1cc(NC(=O)[C@H]2[C@H](c3cc(Cl)cc(Cl)c3)C2(Cl)Cl)ccc1Cl` (relative stereo) [F1176, trans-N-(4-(Benzylamino)-2-methylphenyl)-2-chloro-5-(2,2-dichloro-3-(3,5-dichlorophenyl)cyclopropane-1-carboxamido)benzamide], the pest or weed control at 50 µg/cm2 in assay [1] (setting [7]) and in assay [2] (setting [8]) was 50 to 100% throughout. Further, in assay [3] (setting [9]), the YFM entry is “A (80–100)”.
On to `N#CC1(C(=O)NNC(=O)c2cc(NC(=O)[C@H]3[C@H](c4cc(Cl)cc(Cl)c4)C3(Cl)Cl)ccc2Cl)CC1` (relative stereo) [F2518, trans-2,2-Dichloro-N-(4-chloro-3-(2-(1-cyanocyclopropane-1-carbonyl)hydrazine-1-carbonyl)phenyl)-3-(3,5-dichlorophenyl)cyclopropane-1-carboxamide], for which the pest or weed control at 50 µg/cm2 in assay [1] (setting [10]) and in assay [2] (setting [11]) was 50 to 100% in each case. In assay [3] (Yellow Fever Mosquito), the YFM rating entry is recorded as “A (80–100)”.
For the compound `O=C(NNCc1ccc(F)cc1F)c1cc(NC(=O)[C@H]2[C@H](c3cc(Cl)cc(Cl)c3)C2(Cl)Cl)ccc1Cl` (relative stereo) [F2547, trans-2,2-dichloro-N-(4-chloro-3-(2-(2,4-difluorobenzyl)hydrazine-1-carbonyl)phenyl)-3-(3,5-dichlorophenyl)cyclopropane-1-carboxamide], the pest or weed control at 50 µg/cm2 in assay [1] (setting [10]) and in assay [2] (setting [11]) was 50 to 100% throughout. In assay [3] (Yellow Fever Mosquito), the YFM rating entry is “A (80–100)”.
As for `CN(C(=O)c1cc(NC(=O)[C@H]2[C@H](c3ccc(F)c(C(F)(F)F)c3)C2(Cl)Cl)ccc1Cl)c1ccc(F)c(NC(=O)C2CCCO2)c1F` (stereo partly drawn) [F1798, N-(3-(2-Chloro-5-((1R,3R)-2,2-Dichloro-3-(4-fluoro-3-(trifluoromethyl)phenyl)cyclopropane-1-carboxamido)-N-methylbenzamido)-2,6-difluorophenyl)tetrahydrofuran-2-carboxamide], the pest or weed control at 50 µg/cm2 in assay [1] (setting [10]) and in assay [2] (setting [11]) was 50 to 100% throughout. Moreover, the YFM rating entry in assay [3] (Yellow Fever Mosquito) was “B (More than 0 – Less than 80)”.
As to `CCOC(C)C(=O)Nc1c(F)ccc(NC(=O)c2cc(NC(=O)[C@H]3[C@H](c4cc(Cl)c(Cl)c(Cl)c4)C3(Cl)Cl)ccc2Cl)c1F` (stereo partly drawn) [F1645, 2-Chloro-5-((1R,3R)-2,2-dichloro-3-(3,4,5-trichlorophenyl)cyclopropane-1-carboxamido)-N-(3-(2-ethoxypropanamido)-2,4-difluorophenyl)benzamide], the pest or weed control at 50 µg/cm2 in assay [1] (setting [4]) and in assay [2] (setting [5]) was 50 to 100% each time. Moreover, the YFM result in assay [3] (setting [6]) is given as “A (80–100)”.
In the case of `O=C(Nc1cc(NC(=O)C(F)F)c(F)cc1F)c1cc(NC(=O)[C@H]2[C@H](c3ccc(F)c(C(F)(F)F)c3)C2(Cl)Cl)ccc1F` [F1558, 5-((1R,3R)-2,2-Dichloro-3-(4-fluoro-3-(trifluoromethyl)phenyl)cyclopropane-1-carboxamido)-N-(5-(2,2-difluoroacetamido)-2,4-difluorophenyl)-2-fluorobenzamide], the pest or weed control at 50 µg/cm2 in assay [1] (setting [4]) and in assay [2] (setting [5]) was 50 to 100% throughout. For the same compound, in assay [3] (setting [6]), the YFM result is given as “A (80–100)”.
As for `O=C(Nc1ccc(F)cc1F)c1cc(NC(=O)[C@H]2[C@@H](c3cc(C(F)(F)F)cc(Cl)c3F)C2(Cl)Cl)ccc1Cl` (relative stereo) [F1051, cis-2-Chloro-5-(2,2-dichloro-3-(3-chloro-2-fluoro-5-(trifluoromethyl)phenyl)cyclopropane-1-carboxamido)-N-(2,4-difluorophenyl)benzamide], the pest or weed control at 50 µg/cm2 in assay [1] (setting [7]) and in assay [2] (setting [8]) was 50 to 100% each time. Besides, in assay [3] (setting [9]), the YFM result is “A (80–100)”.
As for `O=C(NCC1CC1)NNC(=O)c1cc(NC(=O)[C@H]2[C@H](c3cc(Cl)cc(Cl)c3)C2(Cl)Cl)ccc1Cl` (relative stereo) [F2538, trans-2-(2-Chloro-5-(2,2-dichloro-3-(3,5-dichlorophenyl)cyclopropane-1-carboxamido)benzoyl)-N-(cyclopropylmethyl)hydrazine-1-carboxamide], the pest or weed control at 50 µg/cm2 in assay [1] (setting [10]) and in assay [2] (setting [11]) was 50 to 100% in each case. The YFM rating entry in assay [3] (Yellow Fever Mosquito) was “A (80–100)”.
For the compound `Cc1c(F)c(NC(=O)c2cc(NC(=O)[C@H]3[C@H](c4ccc(F)c(C(F)(F)F)c4)C3(Cl)Cl)ccc2Cl)cc(NC(=O)C(F)F)c1F` [F1680, 2-Chloro-5-((1R,3R)-2,2-dichloro-3-(4-fluoro-3-(trifluoromethyl)phenyl)cyclopropane-1-carboxamido)-N-(5-(2,2-difluoroacetamido)-2,4-difluoro-3-methylphenyl)benzamide], the pest or weed control at 50 µg/cm2 in assay [1] (setting [4]) and in assay [2] (setting [5]) was 50 to 100% in each case. The YFM result in assay [3] (setting [6]) is reported as “B (More than 0 – Less than 80)”.
As for `CC(=O)N(C)c1c(F)ccc(NC(=O)c2cc(NC(=O)[C@H]3[C@H](c4ccc(F)c(C(F)(F)F)c4)C3(Cl)Cl)ccc2Cl)c1F` [F1506, 2-Chloro-5-((1R,3R)-2,2-dichloro-3-(4-fluoro-3-(trifluoromethyl)phenyl)cyclopropane-1-carboxamido)-N-(2,4-difluoro-3-(N-methylacetamido)phenyl)benzamide], the pest or weed control at 50 µg/cm2 in assay [1] (setting [4]) and in assay [2] (setting [5]) was 50 to 100% in each case. The YFM result in assay [3] (setting [6]) is recorded as “A (80–100)”.
As to `O=C(CC(F)(F)F)Nc1c(F)ccc(NC(=O)c2cc(NC(=O)[C@H]3[C@H](c4ccc(Cl)c(Cl)c4)C3(Cl)Cl)ccc2Cl)c1F` [F1418, 2-Chloro-5-((1R,3R)-2,2-dichloro-3-(3,4-dichlorophenyl)cyclopropane-1-carboxamido)-N-(2,4-difluoro-3-(3,3,3-trifluoropropanamido)phenyl)benzamide], the pest or weed control at 50 µg/cm2 in assay [1] (setting [4]) and in assay [2] (setting [5]) was 50 to 100% in each case. The YFM result in assay [3] (setting [6]) is “A (80–100)”.
In the case of `O=C(Nc1ccc(F)c(NC(=O)C(F)F)c1F)c1cc(NC(=O)[C@H]2[C@H](c3cccc(C(F)(F)F)c3)C2(Cl)Cl)ccc1Cl` [F1675, 2-Chloro-5-((1R,3R)-2,2-dichloro-3-(3-(trifluoromethyl)phenyl)cyclopropane-1-carboxamido)-N-(3-(2,2-difluoroacetamido)-2,4-difluorophenyl)benzamide], the pest or weed control at 50 µg/cm2 in assay [1] (setting [4]) and in assay [2] (setting [5]) was 50 to 100% in each case. Also, in assay [3] (setting [6]), the YFM result is listed as “A (80–100)”.
Consider `C#CCCCC(=O)Nc1c(F)ccc(NC(=O)c2cc(NC(=O)[C@H]3[C@H](c4ccc(F)c(C(F)(F)F)c4)C3(Cl)Cl)ccc2Cl)c1F` [F1857], for which the pest or weed control at 50 µg/cm2 in assay [1] (setting [10]) and in assay [2] (setting [11]) was 50 to 100% in each case. Further, in assay [3] (Yellow Fever Mosquito), the YFM rating result is “A (80–100)”.
On to `O=C(CC1CC1)Nc1c(F)ccc(NC(=O)c2cc(NC(=O)[C@H]3[C@H](c4cc(Cl)c(Cl)c(Cl)c4)C3(Cl)Cl)ccc2Cl)c1F` [F1653, 2-Chloro-N-(3-(2-cyclopropylacetamido)-2,4-difluorophenyl)-5-((1R,3R)-2,2-dichloro-3-(3,4,5-trichlorophenyl)cyclopropane-1-carboxamido)benzamide], for which the pest or weed control at 50 µg/cm2 in assay [1] (setting [4]) and in assay [2] (setting [5]) was 50 to 100% throughout. Besides, in assay [3] (setting [6]), the YFM entry is “A (80–100)”.
For the compound `CC(=O)Nc1ccc(F)c(NC(=O)c2cc(NC(=O)[C@H]3[C@H](c4ccc(F)c(C(F)(F)F)c4)C3(Cl)Cl)ccc2Cl)c1F` [F1454, N-(3-Acetamido-2,6-difluorophenyl)-2-chloro-5-((1R,3R)-2,2-dichloro-3-(4-fluoro-3-(trifluoromethyl)phenyl)cyclopropane-1-carboxamido)benzamide], the pest or weed control at 50 µg/cm2 in assay [1] (setting [4]) and in assay [2] (setting [5]) was 50 to 100% throughout. Besides, the YFM result in assay [3] (setting [6]) was “A (80–100)”.
For the compound `Nc1c(F)ccc(NC(=O)c2cc(NC(=O)[C@H]3[C@@H](c4cc(F)c(F)c(Br)c4)C3(Cl)Cl)ccc2Cl)c1F` (relative stereo) [F1045, cis-N-(3-Amino-2,4-difluorophenyl)-5-(3-(3-bromo-4,5-difluorophenyl)-2,2-dichlorocyclopropane-1-carboxamido)-2-chlorobenzamide], the pest or weed control at 50 µg/cm2 in assay [1] (setting [7]) and in assay [2] (setting [8]) was 50 to 100% throughout. For the same compound, the YFM entry in assay [3] (setting [9]) is reported as “A (80–100)”.
For the compound `O=C(Nc1ccc(F)cc1F)c1cc(NC(=O)[C@H]2[C@H](c3cc(Cl)c(F)c(Cl)c3)C2(Cl)Cl)ccc1Cl` (relative stereo) [F1172, trans-2-Chloro-5-(2,2-dichloro-3-(3,5-dichloro-4-fluorophenyl)cyclopropane-1-carboxamido)-N-(2,4-difluorophenyl)benzamide], the pest or weed control at 50 µg/cm2 in assay [1] (setting [7]) and in assay [2] (setting [8]) was 50 to 100% in each case. For the same compound, the YFM result in assay [3] (setting [9]) was “A (80–100)”.
